Values after ≈ are worked out from the molar mass of the structure shown.

MIC data for 22 compounds are collected here from ChEMBL document CHEMBL1933065, “Synthesis and antifungal evaluation of pyrido[1,2-a]indole-1,4-diones and benzo[f]pyrido[1,2-a]indole-6,11-diones” (2012).

Holding throughout (format): functional
One assay relates to Pichia kudriavzevii. Briefly: Antifungal activity against Candida krusei Berkout KCCM 11655 after 1 day by two fold broth dilution method. As to conditions: Berkout KCCM 11655, 24 h. A general note: In broth dilution the organism is exposed to a series of concentrations in liquid medium.
For a further assay, the system named is Candida tropicalis. Briefly: Antifungal activity against Candida tropicalis Berkout KCCM 50662 after 1 day by two fold broth dilution method. As to conditions: Berkout KCCM 50662, 24 h.
For a further assay, the system named is Cryptococcus neoformans. As to the kind of experiment: Antifungal activity against Cryptococcus neoformans Berkout KCCM 50564 after 1 day by two fold broth dilution method. The following applies: Berkout KCCM 50564, 24 h.
For a further assay, the system named is Candida albicans. As to the kind of experiment: Antifungal activity against Candida albicans Berkout KCCM 50235 after 1 day by standard two fold broth dilution method. The following applies: Berkout KCCM 50235, 24 h.
The next assay has as its system Aspergillus niger. As to the kind of experiment: Antifungal activity against Aspergillus niger KCTC 1231 after 2 days by two fold broth dilution method. The following applies: KCTC 1231, 48 h.
The subject of a further assay is Aspergillus flavus. Briefly: Antifungal activity against Aspergillus flavus KCCM 11899 after 2 days by two fold broth dilution method. As to conditions: KCCM 11899, 48 h.

Consider `CCOC(=O)c1c2c(n3ccc(CC)cc13)C(=O)C(C)=C(C)C2=O`, for which the MIC – broadly, the lowest concentration found to suppress growth – against Pichia kudriavzevii was 6.3 µg/mL (≈ 19.4 µM); with Candida tropicalis, 12.5 µg/mL (≈ 38.4 µM); in the assay on Cryptococcus neoformans, 6.3 µg/mL (≈ 19.4 µM); in the assay with Candida albicans it was 6.3 µg/mL (≈ 19.4 µM); against Aspergillus niger, 12.5 µg/mL (≈ 38.4 µM); in the assay on Aspergillus flavus, 6.3 µg/mL (≈ 19.4 µM).
For the compound `CCc1ccn2c3c(c(C(C)=O)c2c1)C(=O)c1ccccc1C3=O`, the MIC against Pichia kudriavzevii was 50 µg/mL (≈ 158 µM); with Candida tropicalis, over 100 µg/mL; against Cryptococcus neoformans, 25 µg/mL (≈ 78.8 µM); with Candida albicans, 50 µg/mL (≈ 158 µM); against Aspergillus niger, 25 µg/mL (≈ 78.8 µM); in the assay with Aspergillus flavus, 12.5 µg/mL (≈ 39.4 µM).
For the compound `COc1ccc2c(C(C)=O)c3c(n2c1)C(=O)c1ccccc1C3=O`, the MIC in the assay on Pichia kudriavzevii was 6.3 µg/mL (≈ 19.7 µM); against Candida tropicalis, 3.2 µg/mL (≈ 10 µM); with Cryptococcus neoformans, 12.5 µg/mL (≈ 39.1 µM); in the assay with Candida albicans, 3.2 µg/mL (≈ 10 µM); in the assay with Aspergillus niger, 6.3 µg/mL (≈ 19.7 µM); against Aspergillus flavus, 12.5 µg/mL (≈ 39.1 µM).
In the case of `CCOC(=O)c1c2c(n3ccc(C)cc13)C(=O)c1ccccc1C2=O`, the minimum inhibitory concentration (MIC) came to 12.5 µg/mL (≈ 37.5 µM) in the assay with Pichia kudriavzevii; 3.2 µg/mL (≈ 9.6 µM) with Candida tropicalis; 6.3 µg/mL (≈ 18.9 µM) in the assay on Cryptococcus neoformans; 6.3 µg/mL (≈ 18.9 µM) with Candida albicans; 12.5 µg/mL (≈ 37.5 µM) with Aspergillus niger; 25 µg/mL (≈ 75 µM) against Aspergillus flavus.
Consider `CCOC(=O)c1c2c(n3ccc(OC)cc13)C(=O)c1ccccc1C2=O`, for which the MIC in the assay on Pichia kudriavzevii turned out to be 25 µg/mL (≈ 71.6 µM); in the assay with Candida tropicalis it was 25 µg/mL (≈ 71.6 µM); with Cryptococcus neoformans it was 3.2 µg/mL (≈ 9.16 µM); against Candida albicans, 12.5 µg/mL (≈ 35.8 µM); in the assay on Aspergillus niger, 6.3 µg/mL (≈ 18 µM); with Aspergillus flavus it was 12.5 µg/mL (≈ 35.8 µM).
In the case of `CCOC(=O)c1c2c(n3ccc(CC)cc13)C(=O)c1ccccc1C2=O`, the MIC against Pichia kudriavzevii was over 100 µg/mL; in the assay with Candida tropicalis it was 50 µg/mL (≈ 144 µM); in the assay with Cryptococcus neoformans, 25 µg/mL (≈ 72 µM); against Candida albicans, 25 µg/mL (≈ 72 µM); in the assay with Aspergillus niger, over 100 µg/mL; against Aspergillus flavus, 50 µg/mL (≈ 144 µM).
Consider `CCOC(=O)c1c2c(n3cc(C)ccc13)C(=O)c1ccccc1C2=O`, for which the MIC against Pichia kudriavzevii came to 25 µg/mL (≈ 75 µM); against Candida tropicalis, 6.3 µg/mL (≈ 18.9 µM); against Cryptococcus neoformans it was 12.5 µg/mL (≈ 37.5 µM); against Candida albicans, 12.5 µg/mL (≈ 37.5 µM); in the assay with Aspergillus niger, 3.2 µg/mL (≈ 9.6 µM); in the assay on Aspergillus flavus, 25 µg/mL (≈ 75 µM).
As for `COC(=O)c1c2c(n3ccc(OC)cc13)C(=O)c1ccccc1C2=O`, the minimum inhibitory concentration (MIC) with Pichia kudriavzevii was 50 µg/mL (≈ 149 µM); with Candida tropicalis it was 50 µg/mL (≈ 149 µM); in the assay on Cryptococcus neoformans it was 25 µg/mL (≈ 74.6 µM); in the assay with Candida albicans, 25 µg/mL (≈ 74.6 µM); with Aspergillus niger, 3.2 µg/mL (≈ 9.54 µM); in the assay on Aspergillus flavus, 12.5 µg/mL (≈ 37.3 µM).
Regarding `CCc1ccn2c3c(c(C(=O)OC)c2c1)C(=O)c1ccccc1C3=O`, the MIC in the assay with Pichia kudriavzevii is 50 µg/mL (≈ 150 µM); in the assay on Candida tropicalis, 12.5 µg/mL (≈ 37.5 µM); against Cryptococcus neoformans it was 12.5 µg/mL (≈ 37.5 µM); against Candida albicans, 6.3 µg/mL (≈ 18.9 µM); in the assay with Aspergillus niger, 3.2 µg/mL (≈ 9.6 µM); against Aspergillus flavus, 25 µg/mL (≈ 75 µM).
Consider `COC(=O)c1c2c(n3cc(C)ccc13)C(=O)c1ccccc1C2=O`, for which the minimal inhibitory concentration (MIC) is 50 µg/mL (≈ 157 µM) in the assay on Pichia kudriavzevii; over 100 µg/mL with Candida tropicalis; 25 µg/mL (≈ 78.3 µM) in the assay on Cryptococcus neoformans; 25 µg/mL (≈ 78.3 µM) with Candida albicans; 25 µg/mL (≈ 78.3 µM) with Aspergillus niger; 50 µg/mL (≈ 157 µM) in the assay with Aspergillus flavus.
On to `Cc1ccn2c3c(cc2c1)C(=O)c1ccccc1C3=O`, for which the minimum inhibitory concentration (MIC) was 6.3 µg/mL (≈ 24.1 µM) against Pichia kudriavzevii; 12.5 µg/mL (≈ 47.8 µM) with Candida tropicalis; 6.3 µg/mL (≈ 24.1 µM) against Cryptococcus neoformans; 12.5 µg/mL (≈ 47.8 µM) in the assay on Candida albicans; 50 µg/mL (≈ 191 µM) against Aspergillus niger; 3.2 µg/mL (≈ 12.2 µM) in the assay on Aspergillus flavus.
As to `COc1ccn2c3c(cc2c1)C(=O)c1ccccc1C3=O`, the minimum inhibitory concentration (MIC) against Pichia kudriavzevii is over 100 µg/mL; against Candida tropicalis, 25 µg/mL (≈ 90.2 µM); against Cryptococcus neoformans, over 100 µg/mL; against Candida albicans, 50 µg/mL (≈ 180 µM); against Aspergillus niger, 25 µg/mL (≈ 90.2 µM); with Aspergillus flavus, 6.3 µg/mL (≈ 22.7 µM).
Regarding `Cc1ccn2c3c(c(C)c2c1)C(=O)c1ccccc1C3=O`, the minimum inhibitory concentration (MIC) against Pichia kudriavzevii was found to be 50 µg/mL (≈ 182 µM); in the assay with Candida tropicalis, 12.5 µg/mL (≈ 45.4 µM); against Cryptococcus neoformans, 12.5 µg/mL (≈ 45.4 µM); in the assay with Candida albicans, 6.3 µg/mL (≈ 22.9 µM); against Aspergillus niger, 3.2 µg/mL (≈ 11.6 µM); against Aspergillus flavus it was 25 µg/mL (≈ 90.8 µM).
Turning to `COc1ccn2c3c(c(C)c2c1)C(=O)c1ccccc1C3=O`, the MIC was 50 µg/mL (≈ 172 µM) against Pichia kudriavzevii; over 100 µg/mL in the assay with Candida tropicalis; 25 µg/mL (≈ 85.8 µM) with Cryptococcus neoformans; 25 µg/mL (≈ 85.8 µM) with Candida albicans; 25 µg/mL (≈ 85.8 µM) against Aspergillus niger; 50 µg/mL (≈ 172 µM) in the assay with Aspergillus flavus.
In the case of `CCc1ccn2c3c(c(C)c2c1)C(=O)c1ccccc1C3=O`, the MIC was found to be 6.3 µg/mL (≈ 21.8 µM) in the assay on Pichia kudriavzevii; 12.5 µg/mL (≈ 43.2 µM) in the assay on Candida tropicalis; 6.3 µg/mL (≈ 21.8 µM) with Cryptococcus neoformans; 12.5 µg/mL (≈ 43.2 µM) with Candida albicans; 50 µg/mL (≈ 173 µM) against Aspergillus niger; 3.2 µg/mL (≈ 11.1 µM) against Aspergillus flavus.
On to `CC1=C(C)C(=O)C([n+]2ccc(C)cc2)=C(Cl)C1=O.[Cl-]`, for which the MIC turned out to be 6.3 µg/mL against Pichia kudriavzevii; 6.3 µg/mL in the assay with Candida tropicalis; 3.2 µg/mL with Cryptococcus neoformans; 12.5 µg/mL in the assay on Candida albicans; 25 µg/mL against Aspergillus niger; 6.3 µg/mL against Aspergillus flavus.
Turning to `COc1cc[n+](C2=C(Cl)C(=O)C(C)=C(C)C2=O)cc1.[Cl-]`, the MIC with Pichia kudriavzevii was 12.5 µg/mL; in the assay with Candida tropicalis, 100 µg/mL; in the assay on Cryptococcus neoformans, 6.3 µg/mL; in the assay with Candida albicans, 25 µg/mL; with Aspergillus niger, 25 µg/mL; in the assay on Aspergillus flavus, 25 µg/mL.
Take `Cc1cc[n+](C2=C(Cl)C(=O)c3ccccc3C2=O)cc1.[Cl-]`: the MIC with Pichia kudriavzevii was over 100 µg/mL; against Candida tropicalis it was over 100 µg/mL; against Cryptococcus neoformans, over 100 µg/mL; against Candida albicans, over 100 µg/mL; in the assay with Aspergillus niger, 50 µg/mL; with Aspergillus flavus it was over 100 µg/mL.
For the compound `COc1cc[n+](C2=C(Cl)C(=O)c3ccccc3C2=O)cc1.[Cl-]`, the minimal inhibitory concentration (MIC) was over 100 µg/mL with Pichia kudriavzevii; 50 µg/mL in the assay with Candida tropicalis; 50 µg/mL with Cryptococcus neoformans; over 100 µg/mL with Candida albicans; over 100 µg/mL against Aspergillus niger; over 100 µg/mL against Aspergillus flavus.
For `CCOC(=O)c1c2c(n3ccccc13)C(=O)c1ccccc1C2=O`, the MIC in the assay with Pichia kudriavzevii is 12.5 µg/mL (≈ 39.1 µM); against Candida tropicalis it was 25 µg/mL (≈ 78.3 µM); against Cryptococcus neoformans, 25 µg/mL (≈ 78.3 µM); with Candida albicans, over 100 µg/mL; in the assay on Aspergillus niger it was 12.5 µg/mL (≈ 39.1 µM); against Aspergillus flavus, 6.3 µg/mL (≈ 19.7 µM).
With `OC(Cn1cncn1)(Cn1cncn1)c1ccc(F)cc1F` [FLUCONAZOLE], the MIC was found to be 25 µg/mL (≈ 81.6 µM) in the assay with Pichia kudriavzevii; 3.2 µg/mL (≈ 10.4 µM) in the assay on Candida tropicalis; 6.3 µg/mL (≈ 20.6 µM) in the assay on Cryptococcus neoformans; 50 µg/mL (≈ 163 µM) with Candida albicans; 6.3 µg/mL (≈ 20.6 µM) with Aspergillus niger; 25 µg/mL (≈ 81.6 µM) in the assay on Aspergillus flavus.
On to `Nc1nc(=O)[nH]cc1F` [FLUCYTOSINE], for which the MIC against Pichia kudriavzevii came to 6.3 µg/mL (≈ 48.8 µM); against Candida tropicalis, 6.3 µg/mL (≈ 48.8 µM); against Cryptococcus neoformans it was 6.3 µg/mL (≈ 48.8 µM); in the assay on Candida albicans, 3.2 µg/mL (≈ 24.8 µM); against Aspergillus niger, 6.3 µg/mL (≈ 48.8 µM); in the assay with Aspergillus flavus, 25 µg/mL (≈ 194 µM).
